Measurements reported in patent US20120142580A1, “OPIOID RECEPTORS STIMULATING COMPOUNDS (THYMOQUINONE, NIGELLA SATIVA) AND FOOD ALLERGY” (NESTEC S.A., priority 2009, published 2012).

Assays:
[1] = tested on: OVA-sensitized mice; experiment: Murine model of OVA-induced allergic diarrhea: diarrhea scores; type: in vivo, Balb/c mice
Text: Male Balb/c mice were sensitized by intraperitoneal injection of ovalbumin (OVA) together with aluminium potassium sulphate.
(§1) Briefly, following sensitization (2 intraperitoneal injections of OVA and aluminium potassium sulphate at an interval of 14 days) adult male Balb/c mice were orally challenged with OVA for 6 times (days 28, 30, 33, 35, 37, 40) resulting in transient clinical symptoms (diarrhea) and changes of immune parameters (plasma concentration of total IgE, OVA specific IgE, mouse mast cell protease 1 (MMCP-1) as well as Th2 type cytokine production of ex vivo OVA re-stimulated mesenteric lymphocytes (MLN)). Substances, to be tested, were administered either by subcutaneous injection (thymoquinone and naloxone methiodide according to the literature) or by gavage (Nigella sativa extract).

[2] = biological target: μ-hOR (Homo sapiens, UniProt P35372); experiment: Ligand displacement from μ-opioid receptor; type: binding; settings: 100 μM
μ-hOR, sequence (P35372 whole entry): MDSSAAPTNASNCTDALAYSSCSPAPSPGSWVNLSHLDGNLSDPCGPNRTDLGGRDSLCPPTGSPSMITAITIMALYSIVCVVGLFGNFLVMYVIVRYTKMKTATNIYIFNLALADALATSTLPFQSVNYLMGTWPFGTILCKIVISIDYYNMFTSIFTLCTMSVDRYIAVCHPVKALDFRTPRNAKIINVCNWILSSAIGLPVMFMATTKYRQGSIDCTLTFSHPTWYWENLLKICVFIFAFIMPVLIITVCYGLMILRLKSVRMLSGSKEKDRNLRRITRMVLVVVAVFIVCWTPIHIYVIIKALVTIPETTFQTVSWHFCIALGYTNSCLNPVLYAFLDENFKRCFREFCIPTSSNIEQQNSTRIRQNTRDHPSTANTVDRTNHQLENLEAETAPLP

[3] = tested on: mouse mast cell protease 1 (MMCP-1); experiment: Murine model of OVA-induced allergic diarrhea: plasma MMCP-1; type: in vivo, Balb/c mice; settings: thymoquinone study; 4th challenge; FIG. 2
Text: as §1
At large the MMCP-1 concentration in plasma correlates with the number of mast cells in the tissue which are known to be key players of diarrhea development in this mouse model (Brandt, E. B., et al., 2003, J. Clin. Invest 112, 1666-1677).

[4] = biological target: κ-hOR (Homo sapiens, UniProt P41145); experiment: Ligand displacement from κ-opioid receptor; type: binding; settings: 100 μM
κ-hOR, sequence (P41145 whole entry): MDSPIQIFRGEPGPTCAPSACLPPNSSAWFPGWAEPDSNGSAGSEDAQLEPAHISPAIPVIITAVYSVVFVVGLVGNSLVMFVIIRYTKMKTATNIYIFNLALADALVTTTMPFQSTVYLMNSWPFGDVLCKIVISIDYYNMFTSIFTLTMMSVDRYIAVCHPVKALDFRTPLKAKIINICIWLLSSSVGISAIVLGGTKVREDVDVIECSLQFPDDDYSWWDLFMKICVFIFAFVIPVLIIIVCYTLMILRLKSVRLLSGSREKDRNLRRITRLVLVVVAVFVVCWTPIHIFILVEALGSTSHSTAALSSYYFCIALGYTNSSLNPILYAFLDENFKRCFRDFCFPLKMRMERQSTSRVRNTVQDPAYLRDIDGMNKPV

[5] = biological target: δ-hOR (Homo sapiens, UniProt P41143); experiment: Ligand displacement from δ-opioid receptor; type: binding; settings: 100 μM
δ-hOR, sequence (P41143 whole entry): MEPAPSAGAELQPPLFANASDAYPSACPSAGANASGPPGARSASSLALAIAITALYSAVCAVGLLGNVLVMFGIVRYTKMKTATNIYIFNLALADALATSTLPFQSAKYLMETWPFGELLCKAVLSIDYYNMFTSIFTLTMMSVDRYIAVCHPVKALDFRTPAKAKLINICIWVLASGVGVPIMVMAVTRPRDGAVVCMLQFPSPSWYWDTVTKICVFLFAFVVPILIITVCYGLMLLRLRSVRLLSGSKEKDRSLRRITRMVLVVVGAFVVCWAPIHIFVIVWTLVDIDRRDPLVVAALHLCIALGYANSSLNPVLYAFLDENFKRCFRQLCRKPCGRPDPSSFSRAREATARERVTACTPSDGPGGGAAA

Structure (SMILES) | diarrhea score (Median ±RobustSD) ([1]; 3rd challenge, FIG. 3, OVA control 1±1.2) | diarrhea score (Median ±RobustSD) ([1]; 4th challenge, FIG. 3, OVA control 2±3.6) | diarrhea score (Median ±RobustSD) ([1]; 5th challenge, FIG. 3, OVA control 4±0) | diarrhea score (Median ±RobustSD) ([1]; 6th challenge, FIG. 3, OVA control 4.5±1.2) | μ-hOR % ligand displacement [2] | plasma MMCP-1 compared to non-treated OVA challenged controls [3] | κ-hOR % ligand displacement [4] | δ-hOR % ligand displacement [5] | diarrhea score (Median ±RobustSD) ([1]; OVA-challenged mice treated with thymoquinone (subcutaneous), after 6th challenge, FIG. 1, OVA control 5±0) | clinical symptoms compared to non-treated mice ([1]; thymoquinone 4 days prior to sensitization and during challenge period, after 6th challenge)
C=CC[N+]1(C)CC[C@]23c4c5ccc(O)c4O[C@H]2C(=O)CC[C@@]3(O)[C@H]1C5.[I-] (stereo partly shown) [Naloxone, naloxone methiodide] | 2±1.2 | 3.5±1.2 | 4±0 | 5±0 |  |  |  |  |  | 
CC1=CC(=O)C(C(C)C)=CC1=O [Thymoquinone, 2-Isopropyl-5-methyl-1,4-benzoquinone] |  |  |  |  | 45% | significantly lower | 37% | 48% | 3±1.79 | significantly improve
